Laboratory results: PMC7673538 (PLoS Biology, 2020)
Several values for one entry are separate records, joined by “and”; a condition that tells them apart may be missing. Equal values may be shown once. Read-outs that look alike come from different tables or passages of the source.

Key:
Test in all cases: microbe, parasite or virus in culture
[1] = tested on: EV-A71; assay type: cell-based, enterovirus A71; conditions: for EC50: Enterovirus A
[2] = tested on: PV-1; assay type: cell-based, poliovirus 1; conditions: for EC50: Enterovirus C
[3] = tested on: CV-A24; assay type: cell-based, coxsackievirus A24; conditions: Enterovirus C
[4] = tested on: CV-A24v; assay type: cell-based, coxsackievirus A24v; conditions: for EC50: Coxsackievirus
[5] = tested on: EV-D68; assay type: cell-based, enterovirus D68

SMILES: COc1ccc(N(Cc2ccc(F)cc2)C(=O)c2ccco2)cc1 [Compound 1, N-(4-fluorobenzyl)-N-(4-methoxyphenyl)furan-2-carboxamide]
- Figure 7 dose-response raw data, EV-A71 (triplicate values) ([1]; Concentration 0.0046 µM): 12.0987 and 12.2161 and 13.2733
- Figure 7 dose-response raw data, EV-A71 (triplicate values) ([1]; Concentration 0.0137 µM): 11.5913 and 20.0727 and 21.6478
- Figure 7 dose-response raw data, EV-A71 (triplicate values) ([1]; Concentration 0.0412 µM): 13.4087 and 20.6785 and 25.0404
- Figure 7 dose-response raw data, EV-A71 (triplicate values) ([1]; Concentration 0.1235 µM): 12.0987 and 12.2161 and 13.2733
- Figure 7 dose-response raw data, EV-A71 (triplicate values) ([1]; Concentration 0.3704 µM): 11.5913 and 20.0727 and 21.6478
- Figure 7 dose-response raw data, EV-A71 (triplicate values) ([1]; Concentration 1.1111 µM): 13.4087 and 20.6785 and 25.0404
- Figure 7 dose-response raw data, EV-A71 (triplicate values) ([1]; Concentration 3.3333 µM): 12.0987 and 12.2161 and 13.2733
- Figure 7 dose-response raw data, EV-A71 (triplicate values) ([1]; Concentration 11.1111 µM): 11.5913 and 20.0727 and 21.6478
- Figure 7 dose-response raw data, EV-A71 (triplicate values) ([1]; Concentration 33.3333 µM): 13.4087 and 20.6785 and 25.0404
- Figure 7 dose-response raw data, EV-A71 (triplicate values) ([1]; Concentration 100 µM): 11.5913 and 20.0727 and 21.6478
- EC50 ([1]; EVA71, HeLa R19, read-out: EC50 EV-A71): > 30 µM
- EC50 ([1]; EVA71, HeLa R19, read-out: EC50 EV-A71 Average): > 30 µM
- EC50 ([1]; EVA71, HeLa R19, read-out: EC50 EV-A71 Experiement 3): > 30 µM
- EC50 ([1]; EVA71, HeLa R19, read-out: EC50 EV-A71 Experiment 1): > 30 µM
- EC50 ([1]; EVA71, HeLa R19, read-out: EC50 EV-A71 Experiment 2): > 30 µM
- EC50 ([1]; EVA71, HeLa R19, read-out: EC50 EV-A71 strain BrCr): > 30 µM
- EC50 ([1]; EVA71, HeLa R19, read-out: EC50 EV-A71 strain TW/2728/04): > 30 µM
- EC50 ([1]; EVA71, HeLa R19, read-out: EC50 EV-A71 strain TW/2945/98): > 30 µM
- EC50 ([1]; EVA71, HeLa R19, read-out: EC50 EV-A71 strain TW/70811/08): > 30 µM
- EC50 ([1]; EVA71, HeLa R19, read-out: EC50 EV-A71 strain TW/72232/04): > 30 µM
- EC50 ([1]; EVA71, HeLa R19, read-out: EC50 EV-A71 strain TW/96016/08): > 30 µM
- Figure 7 dose-response raw data, PV-1 (triplicate values) ([2]; Concentration 0.0046 µM): 10.497 and 8.759 and 8.625
- Figure 7 dose-response raw data, PV-1 (triplicate values) ([2]; Concentration 0.0137 µM): 10.497 and 8.759 and 8.625
- Figure 7 dose-response raw data, PV-1 (triplicate values) ([2]; Concentration 0.0412 µM): 10.497 and 11.7005 and 9.1598
- Figure 7 dose-response raw data, PV-1 (triplicate values) ([2]; Concentration 0.1235 µM): 10.7644 and 8.357 and 9.1598
- Figure 7 dose-response raw data, PV-1 (triplicate values) ([2]; Concentration 0.3704 µM): 13.4388 and 8.357 and 9.294
- Figure 7 dose-response raw data, PV-1 (triplicate values) ([2]; Concentration 1.1111 µM): 13.4388 and 8.357 and 9.294
- Figure 7 dose-response raw data, PV-1 (triplicate values) ([2]; Concentration 3.3333 µM): 10.497 and 11.7005 and 9.1598
- Figure 7 dose-response raw data, PV-1 (triplicate values) ([2]; Concentration 11.1111 µM): 10.7644 and 8.357 and 9.1598
- Figure 7 dose-response raw data, PV-1 (triplicate values) ([2]; Concentration 33.3333 µM): 13.4388 and 8.357 and 9.294
- Figure 7 dose-response raw data, PV-1 (triplicate values) ([2]; Concentration 100 µM): 9.294 and 9.1598
- EC50 ([2]; HeLa R19, read-out: EC50 PV-1): > 30 µM
- EC50 ([2]; HeLa R19, read-out: EC50 PV-1 Average): > 30 µM
- EC50 ([2]; HeLa R19, read-out: EC50 PV-1 Experiement 3): > 30 µM
- EC50 ([2]; HeLa R19, read-out: EC50 PV-1 Experiment 1): > 30 µM
- EC50 ([2]; HeLa R19, read-out: EC50 PV-1 Experiment 2): > 30 µM
- EC50 ([3]; CVA24, HeLa R19, read-out: EC50 CV-A24): > 30 µM
- EC50 ([3]; CVA24, HeLa R19, read-out: EC50 CV-A24 Average): > 30 µM
- EC50 ([3]; CVA24, HeLa R19, read-out: EC50 CV-A24 Experiement 3): > 30 µM
- EC50 ([3]; CVA24, HeLa R19, read-out: EC50 CV-A24 Experiment 1): > 30 µM
- EC50 ([3]; CVA24, HeLa R19, read-out: EC50 CV-A24 Experiment 2): > 30 µM
- EC50 ([3]; CVA24, HeLa R19, read-out: EC50 CV-A24 strain Joseph): > 30 µM
- Figure 7 dose-response raw data, CV-A24v (triplicate values) ([4]; Concentration 0.0046 µM): 10.497 and 8.759 and 8.625
- Figure 7 dose-response raw data, CV-A24v (triplicate values) ([4]; Concentration 0.0137 µM): 9.388 and 8.898 and 11.4747
- Figure 7 dose-response raw data, CV-A24v (triplicate values) ([4]; Concentration 0.0412 µM): 9.388 and 8.898 and 11.4747
- Figure 7 dose-response raw data, CV-A24v (triplicate values) ([4]; Concentration 0.1235 µM): 8.529 and 8.161 and 15.8928
- Figure 7 dose-response raw data, CV-A24v (triplicate values) ([4]; Concentration 0.3704 µM): 10.8611 and 15.1565 and 15.6474
- Figure 7 dose-response raw data, CV-A24v (triplicate values) ([4]; Concentration 1.1111 µM): 10.0021 and 16.3837 and 13.9292
- Figure 7 dose-response raw data, CV-A24v (triplicate values) ([4]; Concentration 11.1111 µM): 8.182 and 7.259 and 9.382
- EC50 ([4]; HeLa R19, read-out: EC50 CV-A24v strain 110386): > 30 µM
- EC50 ([4]; HeLa R19, read-out: EC50 CV-A24v strain 110389): > 30 µM
- EC50 ([4]; HeLa R19, read-out: EC50 CV-A24v strain 110390): > 30 µM
- EC50 ([4]; HeLa R19, read-out: EC50 CV-A24v strain 110392): > 30 µM
- inhibition of EV-D68 replication (in words) [5]: antiviral activity
- Figure 7 dose-response raw data, EV-D68 (triplicate values) ([5]; Concentration 0.001 µM): 8.529 and 8.161 and 15.8928
- Figure 7 dose-response raw data, EV-D68 (triplicate values) ([5]; Concentration 0.0412 µM): 9.388 and 8.898 and 11.4747
- Figure 7 dose-response raw data, EV-D68 (triplicate values) ([5]; Concentration 0.1235 µM): 8.529 and 8.161 and 15.8928
- Figure 7 dose-response raw data, EV-D68 (triplicate values) ([5]; Concentration 0.3704 µM): 8.529 and 8.161 and 15.8928
- Figure 7 dose-response raw data, EV-D68 (triplicate values) ([5]; Concentration 1.1111 µM): 105.527 and 109.089 and 109.58
- Figure 7 dose-response raw data, EV-D68 (triplicate values) ([5]; Concentration 3.3333 µM): 104.422 and 100.246 and 109.335
